# Results reported in patent US20130310421A1, “TREATMENT OF AMYLOID BETA AMYLOIDOSIS” (Temple University - Of The Commonwealth System of Higher …, priority 2012, published 2013).
# Entries after “also recorded” stand apart in the source; their conditions may differ.
# How the values were obtained:
# [1] = test system: γ-secretase-mediated cleavage of Notch; experiment: γ-secretase-mediated cleavage of Notch (NICD western blot) in transfected N2A-APPswe cells; format: cell-based; conditions: N2A-APPswe cells transfected with Myc-tagged mAE-Notch-1, 24-hour incubation vs vehicle
# Method: For transfection studies, N2A-APPswe cells were transfected with 1 μg Myc-tagged mAE-Notch-1 complementary DNA overnight (a generous gift from Dr. L. D'Adamio, Albert Einstein Medical College, NY) by using Lipofectamine 2000 (Invitrogen). The media were removed and fresh media containing MK-591, L685, 458 or vehicle was added. After a 24-hour incubation, cell lysates were collected and Notch intracellular domain (NICD) expression levels assayed by western blot analysis.
# 3xTg mice = experiment: Electrophysiology of hippocampal slices (fEPSP, PPF, LTP) of 3xTg mice; format: in vivo, mouse; conditions: 3xTg-MK-591 mice, mean +/- SEM
# Method: The 3xTg mice harboring a mutant amyloid precursor protein (APP; KM670/671NL), a human mutant PS1 (M146V) knockin, and tau (P301L) transgenes, wild type mice (WT), and mice genetically deficient for FLAPKO (FLAPKO) used in this study were reported previously (Oddo S et al. Neuron 2003, 39:409-421; Byrum R S et al. J Exp Med 1997, 185:1065-1075). All the animals were backcrossed 10 times on the same genetic background C57BL6/SJL. The FLAPKO mice were crossbred several times with 3xTg mice to obtain founder animals (3xTg/FLAPKO), which were then crossed with each other. The animals from these crosses were used for the studies. […]
# Six month old mice (n=# slices/# animals): WT (n=23/8); 3xTg (n=21/7); 3xTg-FLAPKO (n=21/6); 3xTg plus MK-591 (n=10/3) were sacrificed by rapid decapitation and brains were put into ice-cold artificial cerebral spinal fluid (CSF) in which sucrose (248 mM) was substituted for NaCl. […] We recorded field excitatory postsynaptic potentials (fEPSPs) from the CAl stratum radiatum by using an extracellular glass pipette ([…]) filled with ACSF. […] Baseline was recorded for 20 mins prior to tetanization with pulses every 30 seconds. […] The fEPSP rise/slope (mV/ms) between 30 and 90% was measured offline using Clampfit 10.3 (Molecular Devices, LLC) and normalized to the mean rise/slope of the baseline. […]
# Tg2576 mice = experiment: General health and blood parameters of Tg2576 mice on chronic MK-591 diet; format: in vivo, mouse
# Method: The Tg2576 transgenic mice expressing human APP with the Swedish mutation (K670N/M671L) used in these studies were previously described (Pratico D et al. J Neurosci 2001, 21(12):4183-4187). The mice were genotyped by polymerase chain reaction (PCR) analysis using tail DNA and kept in a pathogen-free environment, one 12-hour light/dark cycle and had access to food and water ad libitum. All the experiments presented herein were performed with female mice. Starting at 7 months of age, mice were randomized to receive MK-591 (40 mg/kg weight) (n=11) or vehicle (n=9) in their chow diet for 8 months until they were 15 months old. Considering that each mouse eats on average 5 g/day of chow diet and the diet is formulated for 320 mg MK-591 pwer kg diet (Harlan Teklad, Wis., USA), the final dose of the active drug was approximately 40 mg/kg weight/day.
# Starting at seven months of age Tg2576 mice were randomized to receive MK-591 (320 mg/kg diet) or vehicle in their chow diet for 8 months before being sacrificed. Considering that each mouse eats on average 5 g/day of chow diet, the final dose of the active drug was approximately 40 mg/kg weight/day. By the end of the study, body weight, total plasma cholesterol, triglycerides and blood cell counts were not different between the two groups (not shown).
# [2] = MK-591 approximately 40 mg/kg weight/day for 8 months vs vehicle, end of study
# [3] = MK-591 approximately 40 mg/kg weight/day in chow for 8 months
smiles,measurement,setting,value
"CC(C)C[C@H](NC(=O)[C@H](Cc1ccccc1)C[C@@H](O)[C@H](Cc1ccccc1)NC(=O)OC(C)(C)C)C(=O)N[C@@H](Cc1ccccc1)C(N)=O [L685,458]",Notch intracellular domain (NICD) levels,[1],significant reduction
"CC(C)(C)Sc1c(CC(C)(C)C(=O)O)n(Cc2ccc(Cl)cc2)c2ccc(OCc3ccc4ccccc4n3)cc12 [MK-591, 3-[3-tert-butylsulfanyl-1-[(4-chlorophenyl)methyl]-5-(quinolin-2-ylmethoxy)indol-2-yl]-2,2,-dimethylpropanoic acid]","LTP magnitude as percentage of baseline, 0-10 minutes post-tetanus","3xTg mice; n=10 slices, 3xTg 159.9%, WT 274.6%",272.5%+/−13.2%
same,"LTP magnitude as percentage of baseline, 170-180 minutes post-tetanus","3xTg mice; 3xTg 121.0%, WT 202.6%",202.5%+/−9.4%
same,blood cell counts,Tg2576 mice; [2],not different
same,total plasma cholesterol,Tg2576 mice; [2],not different
same,triglycerides,Tg2576 mice; [2],not different
same,overall general health,Tg2576 mice; [3],No macroscopic effect
same,"post-mortem macroscopic pathology of organs (spleen, liver, thymus, ileum)",Tg2576 mice; [3],no sign of macroscopic pathology
same,body weight,Tg2576 mice; MK-591 approximately 40 mg/kg weight/day in chow for 8 months vs vehicle,no significant difference; also recorded: not different
